This is an account of results in patent publication US20260167623A1 (NIKANG THERAPEUTICS, INC., priority 2022, published 2026).

The target in assay [1] is T1, CDK2 (Homo sapiens, UniProt P24941).
T1 construct: High-Throughput Measurement of Cellular Endogenous CDK2; endogenous in cells; host or cells: OVCAR3
Kind of assay: Inhibition of CDK2: phospho-Rb (S807/811) HTRF measurement in OVCAR3 cells, 24 h. It counts as cell-based. The note with it: 24 h compound treatment, read-out: pRB_OVCAR3_24h. The essentials:
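OVCAR3 cells, seeded overnight, were exposed to compounds at 0.3 to 10,000 nM for 24 h, then lysed. Rb S807/811 phosphorylation read by HTRF (665/620 nm ratio) after 4 h detection at room temperature; data normalized to DMSO and IC50 from four-parameter logistic fit.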

In assay [2] the target is T1, CDK2. Nature of the assay: High-throughput HTRF measurement of cellular endogenous CDK2 level (degradation, DC50/Dmax) in OVCAR3 cells, 6 h. The assay is classed as cell-based. To be noted: 6 h compound treatment, HTRF total CDK2, read-out: DC50_OVCAR3_6h. The essentials:
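OVCAR3 cells were treated overnight after seeding with compounds at 0.03–1,000 nM for 6 h, then lysed. Total CDK2 was quantified by HTRF (d2- and Eu-cryptate anti-CDK2 antibodies, […] ratio) after overnight incubation at room temperature. Data normalized to DMSO (0%) and lysis buffer (100% degradation); DC50 from four-parameter logistic fit.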

For `Cn1nc(N2CCC(=O)NC2=O)c2ccc(C3CCN(CC4CN(c5cccc(S(=O)(=O)N6CCC(Nc7ncc(C(F)(F)F)cn7)CC6)c5)C4)CC3)cc21` [Example 108, 1-(1-methyl-6-(1-((1-(3-((4-((5-(trifluoromethyl)pyrimidin-2-yl)amino)-piperidin-1-yl)sulfonyl)phenyl)azetidin-3-yl)methyl)piperidin-4-yl)-1H-indazol-3-yl)dihydropyrimidine-2,4(1H,3H)-dione], the IC50 at CDK2 [1] was in the range of 1 to 100 nM. Further, on CDK2 [2], the DC50 lay in the range of 10 to 100 nM.
Take `Cn1nc(N2CCC(=O)NC2=O)c2ccc(C3CCN(CC4CCN(c5cccc(S(=O)(=O)N6CCC(Nc7ncc(OC(F)(F)F)cn7)CC6)c5)CC4)CC3)cc21` [Example 115, 1-(1-methyl-6-(1-((1-(3-((4-((5-(trifluoro-methoxy)pyrimidin-2-yl)amino)piperidin-1-yl)sulfonyl)phenyl)piperidin-4-yl)methyl)piperidin-4-yl)-1H-indazol-3-yl)dihydropyrimidine-2,4(1H,3H)-dione]: the IC50 at CDK2 [1] lay within 1 to 100 nM. Besides, the DC50 at CDK2 [2] lay in the range of 10 to 100 nM.
`C[C@@H]1CN(CC2CCN(c3cccc(S(=O)(=O)N4CCC(Nc5ncc(Cl)cn5)CC4)c3)CC2)CCN1c1ccc2c(N3CCC(=O)NC3=O)nn(C)c2c1` [Example 116, (R)-1-(6-(4-((1-(3-((4-((5-chloropyrimidin-2-yl)amino)piperidin-1-yl)sulfonyl)phenyl)-piperidin-4-yl)methyl)-2-methylpiperazin-1-yl)-1-methyl-1H-indazol-3-yl)dihydropyrimidine-2,4(1H,3H)-dione]: the IC50 on CDK2 [1] lay within 1 to 100 nM. Moreover, the DC50 at CDK2 [2] lay within 10 to 100 nM.
As to `O=C1CCC(N2Cc3cc(C4CCN(CC5CCN(c6cccc(S(=O)(=O)N7CCC(Nc8ncc(C(F)(F)F)cn8)CC7)c6)CC5)CC4)c(F)cc3C2=O)C(=O)N1` (stereo not shown) [Example 119, 3-(6-fluoro-1-oxo-5-(1-((1-(3-((4-((5-(trifluoromethyl)pyrimidin-2-yl)amino)-piperidin-1-yl)sulfonyl)phenyl)piperidin-4-yl)methyl)piperidin-4-yl)isoindolin-2-yl)piperidine-2,6-dione], on CDK2 [1], the IC50 lay within 1 to 100 nM. On CDK2 [2], the DC50 fell in the range of 1 to 10 nM.
In the same order, the values of `Cn1nc(N2CCC(=O)NC2=O)c2ccc(C3CCN(CC4CCN(c5cc(F)cc(S(=O)(=O)N6CCC(Nc7ncc(Cl)cn7)CC6)c5)CC4)CC3)cc21` [Example 147, 1-(6-(1-((1-(3-((4-((5-chloropyrimidin-2-yl)amino)piperidin-1-yl)sulfonyl)-5-fluorophenyl)piperidin-4-yl)methyl)piperidin-4-yl)-1-methyl-1H-indazol-3-yl)dihydropyrimidine-2,4(1H,3H)-dione] are 1 to 100 nM and 1 to 10 nM.
In the same order, the values of `Cn1nc(N2CCC(=O)NC2=O)c2ccc(C3CCN(CC4CCN(c5cc(S(=O)(=O)N6CCC(Nc7ncc(Cl)cn7)CC6)ccc5C#N)CC4)CC3)cc21` [Example 148, 4-((4-((5-chloropyrimidin-2-yl)amino)piperidin-1-yl)sulfonyl)-2-(4-((4-(3-(2,4-dioxotetrahydropyrimidin-1(2H)-yl)-1-methyl-1H-indazol-6-yl)piperidin-1-yl)methyl)piperidin-1-yl)benzonitrile] are 1 to 100 nM and 10 to 100 nM.
For the compound `Cn1nc(N2CCC(=O)NC2=O)c2ccc(C3CCN(CC4CCN(c5cc(F)cc(S(=O)(=O)N6CCC(Nc7ncc(C(F)(F)F)cn7)CC6)c5)CC4)CC3)cc21` [Example 149, 1-(6-(1-((1-(3-fluoro-5-((4-((5-(trifluoromethyl)pyrimidin-2-yl)amino)piperidin-1-yl)sulfonyl)phenyl)piperidin-4-yl)methyl)piperidin-4-yl)-1-methyl-1H-indazol-3-yl)dihydropyrimidine-2,4(1H,3H)-dione], the IC50 at CDK2 [1] is 1 to 100 nM. The DC50 on CDK2 [2] lay within 1 to 10 nM.
For the compound `Cn1nc(N2CCC(=O)NC2=O)c2ccc(C3CCN(CC4CCN(c5cc(S(=O)(=O)N6CCC(Nc7ncc(Cl)cn7)CC6)ccc5C#N)CC4)CC3)c(F)c21` [Example 150, 4-((4-((5-chloropyrimidin-2-yl)amino)piperidin-1-yl)sulfonyl)-2-(4-((4-(3-(2,4-dioxotetrahydropyrimidin-1(2H)-yl)-7-fluoro-1-methyl-1H-indazol-6-yl)piperidin-1-yl)methyl)piperidin-1-yl)benzonitrile], the IC50 on CDK2 [1] lay within 1 to 100 nM. Moreover, the DC50 on CDK2 [2] fell in the range of 10 to 100 nM.
Regarding `Cn1c(=O)n(C2CCC(=O)NC2=O)c2cccc(C3CCN(CC4CCN(c5cc(S(=O)(=O)N6CCC(Nc7ncc(Cl)cn7)CC6)ccc5C#N)CC4)CC3)c21` (stereo not shown) [Example 151, 4-((4-((5-chloropyrimidin-2-yl)amino)piperidin-1-yl)sulfonyl)-2-(4-((4-(1-(2,6-dioxopiperidin-3-yl)-3-methyl-2-oxo-2,3-dihydro-1H-benzo[d]imidazol-4-yl)piperidin-1-yl)methyl)piperidin-1-yl)benzonitrile], the IC50 at CDK2 [1] fell in the range of 1 to 100 nM. On CDK2 [2], the DC50 lay within 10 to 100 nM.
On to `Cn1nc(N2CCC(=O)NC2=O)c2ccc(C3CCN(CC4CCN(c5cc(S(=O)(=O)N6CCC(Nc7ncc(C(F)(F)F)cn7)CC6)ccc5C#N)CC4)CC3)cc21` [Example 152, 2-(4-((4-(3-(2,4-dioxotetrahydropyrimidin-1(2H)-yl)-1-methyl-1H-indazol-6-yl)piperidin-1-yl)methyl)piperidin-1-yl)-4-((4-((5-(trifluoromethyl)pyrimidin-2-yl)amino)piperidin-1-yl)sulfonyl)benzonitrile], for which the IC50 at CDK2 [1] is 1 to 100 nM. For the same compound, the DC50 at CDK2 [2] was in the range of 1 to 10 nM.
For the compound `Cn1nc(N2CCC(=O)NC2=O)c2cc(F)c(C3CCN(CC4CCN(c5cc(S(=O)(=O)N6CCC(Nc7ncc(Cl)cn7)CC6)ccc5C#N)CC4)CC3)cc21` [Example 153, 4-((4-((5-chloropyrimidin-2-yl)amino)piperidin-1-yl)sulfonyl)-2-(4-((4-(3-(2,4-dioxotetrahydropyrimidin-1(2H)-yl)-5-fluoro-1-methyl-1H-indazol-6-yl)piperidin-1-yl)methyl)piperidin-1-yl)benzonitrile], the IC50 at CDK2 [1] was 1 to 100 nM. Further, the DC50 on CDK2 [2] is 10 to 100 nM.
In the same order, the values of `Cn1nc(N2CCC(=O)NC2=O)c2ccc(C3CCN(CC4(O)CCN(c5cccc(S(=O)(=O)N6CCC(Nc7ncc(Cl)cn7)CC6)c5)CC4)CC3)cc21` [Example 162, 1-(6-(1-((1-(3-((4-((5-chloropyrimidin-2-yl)amino)piperidin-1-yl)sulfonyl)phenyl)-4-hydroxypiperidin-4-yl)methyl)piperidin-4-yl)-1-methyl-1H-indazol-3-yl)dihydropyrimidine-2,4(1H,3H)-dione] are 1 to 100 nM and 1 to 10 nM.
Consider `Cn1nc(N2CCC(=O)NC2=O)c2ccc(C3CCN(CC4CCN(c5ccc(S(=O)(=O)N6CCC(Nc7ncc(C(F)(F)F)cn7)CC6)cc5)CC4)CC3)cc21` [Example 165, 1-(1-methyl-6-(1-((1-(4-((4-((5-(trifluoromethyl)pyrimidin-2-yl)amino)piperidin-1-yl)sulfonyl)phenyl)piperidin-4-yl)methyl)piperidin-4-yl)-1H-indazol-3-yl)dihydropyrimidine-2,4(1H,3H)-dione], for which the IC50 at CDK2 [1] was 1 to 100 nM. Further, on CDK2 [2], the DC50 lay in the range of 10 to 100 nM.
Consider `O=C1CCC(n2c(=O)oc3c(C4CCN(CC5CCN(c6cccc(S(=O)(=O)N7CCC(Nc8ncc(Cl)cn8)CC7)c6)CC5)CC4)cccc32)C(=O)N1` (stereo not shown) [Example 168, 3-(7-(1-((1-(3-((4-((5-chloropyrimidin-2-yl)amino)piperidin-1-yl)sulfonyl)phenyl)piperidin-4-yl)methyl)piperidin-4-yl)-2-oxobenzo[d]oxazol-3(2H)-yl)piperidine-2,6-dione], for which the IC50 on CDK2 [1] lay within 1 to 100 nM. Besides, on CDK2 [2], the DC50 was in the range of 10 to 100 nM.
On to `Cn1c(=O)n(C2CCC(=O)NC2=O)c2cccc(C3CCN(CC4CCN(c5cc(F)cc(S(=O)(=O)N6CCC(Nc7ncc(OC(F)F)cn7)CC6)c5)CC4)CC3)c21` (stereo not shown) [Example 174, 3-(4-(1-((1-(3-((4-((5-(difluoromethoxy)pyrimidin-2-yl)amino)piperidin-1-yl)sulfonyl)-5-fluorophenyl)piperidin-4-yl)methyl)piperidin-4-yl)-3-methyl-2-oxo-2,3-dihydro-1H-benzo[d]imidazol-1-yl)piperidine-2,6-dione], for which, on CDK2 [1], the IC50 lay in the range of 1 to 100 nM. Besides, on CDK2 [2], the DC50 was 1 to 10 nM.
For the compound `Cn1nc(N2CCC(=O)NC2=O)c2ccc(C3CCN(CC4CCN(c5cc(F)cc(S(=O)(=O)N6CCC(Nc7ncc(OC(F)F)cn7)CC6)c5)CC4)CC3)cc21` [Example 175, 1-(6-(1-((1-(3-((4-((5-(difluoromethoxy)pyrimidin-2-yl)amino)piperidin-1-yl)sulfonyl)-5-fluorophenyl)piperidin-4-yl)methyl)piperidin-4-yl)-1-methyl-1H-indazol-3-yl)dihydropyrimidine-2,4(1H,3H)-dione], on CDK2 [1], the IC50 fell in the range of 100 to 500 nM. In addition, at CDK2 [2], the DC50 fell in the range of 10 to 100 nM.
In the case of `Cn1c(=O)n(C2CCC(=O)NC2=O)c2ccc(C3CCN(CC4CCN(c5cccc(S(=O)(=O)N6CCC(Nc7ncc(C(F)(F)F)cn7)CC6)c5)CC4)CC3)cc21` (stereo not shown) [Example 177, 3-(3-methyl-2-oxo-5-(1-((1-(3-((4-((5-(trifluoromethyl)pyrimidin-2-yl)amino)piperidin-1-yl)sulfonyl)phenyl)piperidin-4-yl)methyl)piperidin-4-yl)-2,3-dihydro-1H-benzo[d]imidazol-1-yl)piperidine-2,6-dione], the IC50 at CDK2 [1] fell in the range of 1 to 100 nM. Moreover, the DC50 on CDK2 [2] lay within 1 to 10 nM.
